This is an account of results in patent US20020025298A1, “Use of texaphyrin in ocular diagnosis and therapy” (Pharmacyclics, Inc., priority 1996, published 2002).

For data set [1] the following is noted: cited from earlier work.
For data set [2], the system named is rabbit plasma proteins and lipoproteins. Briefly: In vivo binding to plasma proteins and lipoproteins, KBr density-gradient ultracentrifugation. The following applies: for binding to plasma elements (in words): rabbit, in vivo. Here is the method:
(§1) Plasma Analysis. Rabbits were injected via the ear vein with 1 μmol Lu(III)T2BET/kg and blood was collected at 15 min, 30 min, 3 hr, and 5 hr post administration. EDTA was used as the anticoagulant. Plasma samples (25 μl) were mixed with 10 mM Triton X100 (3 ml) and analyzed by fluorescence. Fluorescence spectra were acquired with a SLM 48000S instrument, excitation was between 450-480 nm and emission monitored from 700-800 nm. In vivo binding of Lu(III)T2BET to rabbit plasma proteins and lipoproteins was assessed using KBr density-gradient ultracentrifugation to fractionate the protein/lipoprotein mixture, followed by fluorescence spectroscopy to determine the relative distribution of Lu(III)T2BET among the low-density lipoproteins (LDL), high-density lipoproteins (HDL), and heavy proteins.

A further data set relates to normal NZW rabbits. As to the kind of experiment: Fluorescence angiography in normal NZW rabbits with fundoscopy and H&E histology (safety). The data set is classed as in vivo, rabbit. As to conditions: i.v. 1-10 μmol/kg, fluorescein and ICG angiography and H&E histology. As to the method:
Fluorescence angiography comparing LuT2BET, fluorescein, and ICG was performed on normal NZW rabbits. Normal rabbits (n=4) received an intravenous injection of LuT2BET from 1-10 μmol/kg after intramuscular sedation and pupillary dilatation. Extensive fundoscopy was performed immediately and up to 2 hours post texaphyrin, fluorescein, or ICG administration. […] In further studies, vascular lesions including neovascularization was induced in albino rabbits (NZW) using photocoagulation. PDT using LuT2BET was carried out on the induced lesions. […] Therefore, selective accumulation of Lu(III)T2BET in areas of neovascularization should facilitate diagnosis and photodynamic therapy of age-related macular degeneration and other disorders related to abnormal vasculature.
Dyes. Lutetium texaphyrin, Lu(III)T2BET, was dissolved in 5% mannitol at a concentration of 2 mM. Indocyanine-green (ICG, Cardio-Gree^n®, Becton Dickinson and Company, Cockeysville, Md.) and fluorescein (Alcon Laboratories, Fort Worth, Tex.) fluorescent angiograms were performed at concentrations of 0.31 mg/kg and 7.5 mg/kg, respectively. […]
Photography. Fundus photography and fluorescence angiograms were performed with the TOPCON™50VT camera coupled to the Ophthalmic Imaging System (Ophthalmic Imaging System Inc., Sacramento, Calif.). […] ICG was excited at 790-805 nm and fluorescence detected at 835 nm. […]

The nature of data set [3]: Plasma analysis: plasma concentration by fluorescence. The following applies: rabbit, i.v. 1 μmol/kg. The data set is classed as in vivo. As to the method:
as §1

The test system of data set [4] is induced vascular lesions of the eye. Briefly: Photodynamic therapy of induced vascular lesions of the eye. The data set is classed as in vivo. As to conditions: rabbit. As to the method:
Induction of Neovascularization. Photocoagulation bums were introduced in the right macular retina of seven rabbits with an argon dye laser (Coherent Inc., Palo Alto, Calif.). On average, five lesions were induced with 577 nm light using a spot size of 50 μm using enough power (typically 450 mW) to cause bleeding into the retina. The eyes were photographed immediately after photocoagulation. Fluorescein and ICG angiograms were performed 11-15 days after photocoagulation. […] Four control animals, having no induced lesions, were given fluorescence angiograms with the respective dyes.
PDT Protocol. Animals received Lu(III)T2BET, 30 minutes post injection laser light at 488 nm, spot size of 1000 μm, was directed to each lesion via a slitlamp system. Fluorescein angiography was performed throughout the procedure, from prior to until after PDT.
Thirty minutes after injection with LuT2BET, laser light at 488 nm, spot size of 1000 μm, was directed to the lesion via a slitlamp lens system.

A short description of data set [5]: Absorption spectrum and fluorescence profile. Type of data set: physicochemical.
For data set [6] the following is noted: cited from earlier work. The source holds these as a separate data set.

Several values for one entry are separate records, joined by “and”; a condition that tells them apart may be missing. Equal entries are not always repeated. Where two headings read alike, the source gives them in different places.

As to `CCOC(=O)C1=Cc2c3nc(cc4nc(cc5[n-]c(cc6[n-]c2c(C)c6CC)c(C)c5CC)C(C)=C4CC)[C@@H](C)[C@]13CC.[Cl-].[Cl-].[Sn]` (racemic) [SnET2, Tin etiopurpurin], the “solubility in aqueous solutions” value in data set [1] was “insoluble”.

On to `CC1(C)C(/C=C/C=C/C=C/C=C2\N(CCCCS(=O)(=O)O)c3ccc4ccccc4c3C2(C)C)=[N+](CCCCS(=O)(=O)[O-])c2ccc3ccccc3c21` [ICG, indocyanine green, reference compound], for which the “binding to plasma elements (in words)” value in data set [2] is “binding mainly to albumin”.

On to `CC(=O)[O-].CC(=O)[O-].CCc1c(CC)c2cc3nc(cnc4cc(OCCOCCOCCOC)c(OCCOCCOCCOC)cc4ncc4nc(cc1[n-]2)C(CCCO)=C4C)C(C)=C3CCCO.O.[Lu+3]` [LuT2BET], for which the “normal tissue damage after fluorescence angiography” value in the data set on normal NZW rabbits was “no evidence of normal tissue damage”. In data set [2] (rabbit plasma), the “relative in vivo binding, HDL fraction” value is 49%; the “relative in vivo binding, LDL portion” value was found to be 10.5%; the “relative in vivo binding, heavy proteins” value is given as 40.5%. Also, the “binding to plasma elements (in words)” value in data set [2] is “predominantly bound to lipoproteins and to some extent albumin”. This compound yielded a concentration in plasma in data set [3] (15 min) of 2680 ng/mL. In data set [3] (30 min), this compound gave a concentration in plasma of 1790 ng/mL. This compound showed a concentration in plasma in data set [3] (3 hr) of 180 ng/mL. The concentration in plasma in data set [3] (5 h) stood at 120 ng/mL. In addition, in data set [4], the “damage in control normal choroid or retinal tissue after PDT” value is on record as “no damage was observed” and the “damage to surrounding vessels or tissues after PDT” value is “No damage”. For the same compound, the “closure of induced lesions after PDT” value in data set [4] (488 nm light 30 min after injection, spot size 1000 μm) is “Closure of induced lesions was observed”. In data set [4] (fluorescein angiogram after PDT), the “fluorescein leakage outside the treated vessel after PDT” value was “limited fluorescence leakage outside of the PDT-treated vessel”. In addition, in data set [5], the absorption bands was 470 nm and 732 nm; the “fluorescence emission profile centre” value is reported as 750 nm. Further, in data set [5] (at 732 nm), the “extinction coefficient ε” value is listed as 32,000 M^−1 cm^−1. Besides, the “fluorescence emission FWHM” value in data set [5] (emission centered at 750 nm) worked out at 60 nm.

In the case of `O=C1OC2(c3ccc(O)cc3Oc3cc(O)ccc32)c2ccccc21` [fluorescein, reference compound], the “binding to plasma elements (in words)” value in data set [2] is recorded as “not bound to plasma elements”.

For the compound Benzoporphyrin derivative [BPD], the “solubility in aqueous solutions” value in data set [1] is listed as “insoluble”. Moreover, the “duration of cutaneous photosensitivity” value in data set [6] (in vivo) is given as “a few days”.

As for porfimer sodium, the “duration of cutaneous photosensitivity” value in data set [6] (light of 630 nm) was “up to 6 weeks”.
